Measured values reported in patent publication EP2229935A1, “Peptide derivatives or pharmaceutically acceptable salts thereof, method for producing the same, use of said derivatives and pharmaceutical composition” (Nebolsin, Vladimir Evgenievich, priority 1997, dated 1999).
Like-named read-outs stand apart in the source and are kept apart here. Marks after values point to notes of the source that are not given here.

Tests used:
white mongrel male rats [1] = assay: Carrageenan paw edema, cutaneous gel application (series 2); type: in vivo; conditions: for Volume of paws (conditional units) Right: 0.1 ml of 1% gel on right paw, 4 hours after carrageenan; for Volume of paws (conditional units) left: 1% gel group, left paw; for Volume of paws (conditional units) left / Inflammation inhibition (%) / Volume increment: 4 hours; for Inflammation inhibition (%) / Volume increment: 1% gel
Procedure: (§1) Experiment was carried out on white mongrel male rats weighing 280-300 g. Carrageenan-induced edema was caused according to the method of Winter et al. [[inter et al. In: De Rosa M., Giroud J.P., Willoughby D.A. Studies of the mediators of the acute inflammatory reponse induced in rats in different sites by carrageenan and turpentine. […] Paw volume measurement was done using a plethysmograph (Ugo Basile) 1, 3 and 4 hours after carrageenan administration. Inhibition of inflammatory reaction expressed in percent, was calculated according to the formula: 100-[(R-L(exper.))/(L):(R-L(control))/(L)x100](%) [formula] where R - the right paw volume, L - the left paw volume.
Series 2 of experiment. 2% carrageenan solution was injected sublaterally into paws of rats. In 1 minute 0.1 ml of gel comprising the test compounds were applied on the right paw. Gel base consisted of propylene glycol dissolved in the mixture of water and ethanol. Concentration of the compounds in the gel was 1%. Volume of paws was measured 4 hours after carrageenan administration.

hydroxyl radical = assay: Hydroxyl radical formation in the Fenton reagent (chemiluminescence); type: biochemical
Procedure: Active oxygen forms (AOF) of different nature were generated in the following systems: • A. Hydroxyl radical - in the mixture of FeSO4 with H2O2 (the Fenton reagent) [Halliwell B. Superoxide-dependent formation of hydroxyl radicals in the presence of iron salts. […] Incubation medium comprised 5 mM KH2PO4 (pH 7.4); 5 mM FeSO4; 2 mM luminol. H2O2 at final concentration 5 mM was introduced into a cuvette through a dispencer following background luminescence recording of the reagents' mixture. 5 to 10 ml of the test compounds dissolved in water were at needed concentration introduced into a cuvette.
CL flash recording duration after mixing ingredients, depended on a particular process kinetics. For each system, CL light sum (mV) was determined in the control samples without preparations (I-) and in samples comprising respective concentrations of preparations (I+). To estimate CL inhibition (activation) degree, the I+/I- ratio (in relative units) was found in the studied systems.
When H2O2 was introduced into phosphate buffer comprising iron sulfate, CL flash occured which was caused by formation of predominantly hydroxyl radical in the reaction mixture.

[2] = tested on: Lewis pulmonary carcinoma (LLC); assay: Lewis pulmonary carcinoma growth; type: in vivo; conditions: mice with LLC, day 12; for Growth inhibition percent: compound in drinking water; for Tumor volume (mm^3): compound in drinking water from 24 hours after transplantation
Procedure: Experiments were carried out on male mice with initial body mass 18-20 g. Each group included 10 animals. […] Administration of compounds II, III, IX, X, XII, XIV, XV, XVI, XVII, XIX, XXII, XLVII in drinking water was commenced 24 hours following transplantation and continued till the end of experiment. Effect of the compounds on Lewis rat pulmonary carcinoma (LLC) was estimated by day 12 of experiment by change in tumor volume expressed in mm^3.

[3] = tested on: hepatic P-450 cytochrome system; assay: Hexenal sleep duration in mice; type: in vivo; conditions: CBF1 mice, oral 3 days, control 25.91 ± 1.57
Procedure: Change in Hexenal sleep (HS) duration is the in vivo measurable index of hepatic P-450 cytochrome system condition.
Studies were carried out on male mice of the lines BALB/c*h75, C57B1/6, CBA, DBA/2, first generation CBF1 and BDF1 hybrides, with initial mass 18-20 g, each group including 10 mice; and on mongrel male guinea pigs with initial mass 250-300 g, each group including 24 animals. All the test compounds (from II to LII) were administered orally in drinking water and for three days at doses 50 and 500 µg/kg. Hexenal hydrochloride at a dose […] of animal mass was administered 24 hours after the last drug administration, except for line BALB/c*h75 mice, which were administered Hexenal at a dose 60 µg/kg at the same terms, and guinea pigs for which Hexenal dose was 30 µg/kg. HS duration was determined in minutes.

white mongrel male rats [4] = assay: Carrageenan paw edema, oral administration (series I); type: in vivo
Procedure: as §1
Series I of experiment. […] The reference drug Naproxene was once administered at a dose 20 µg/kg 1 hour before edema induction. Each group included 10 animals.

superoxide anion-radical = assay: Superoxide anion-radical formation in the xantine-xantine oxidase system (chemiluminescence); type: biochemical
Procedure: Effect of the compounds of general formula (I) on change in chemiluminescence (CL) determined by hydroxyl radical ( OH) and superoxide anion-radical (O2-), in the model chemical and enzymatic systems.
5 to 10 ml of the test compounds dissolved in water were at needed concentration introduced into a cuvette. A total sample volume was 0.5 ml. • B. Superoxide anion-radical in the mixture of xantine and xantine oxidase [Afanas'ev I., Suslova T., Cheremisina Z. et al. Study of antioxidant properties of metal aspartates.
Incubation medium comprised 5 mM KH2PO4; 0.2 IU/ml xantine oxidase. Xantine at concentration 1 mM was introduced into sample through a dispencer. Luceginine (0.2 mM) was used in this system as luminiscence sensitizer.
CL signal indication was performed by its integration every 10 seconds for 5 minutes. CL flash recording duration after mixing ingredients, depended on a particular process kinetics. For each system, CL light sum (mV) was determined in the control samples without preparations (I-) and in samples comprising respective concentrations of preparations (I+). To estimate CL inhibition (activation) degree, the I+/I- ratio (in relative units) was found in the studied systems.
AOF formation and effect of the test compounds on this process were recorded on the Luminometer-1251 instrument (LKB, Sweden).
Because of such "distension" of the kinetic curve, chemiluminescence light sum was recorded during the first 3-5 minutes which reflected a total amount of light quantums produced in the system till achieving the maximum CL intensity values.

[5] = tested on: Lewis pulmonary carcinoma (LLC); assay: Lewis pulmonary carcinoma spontaneous metastasizing, oral administration; type: in vivo; conditions: BDF1 female mice with LLC, oral 24 days; for Mean number of metastases: day 25
Procedure: Each group included 15 animals. 0.3 ml of LLC tumor tissue suspension was intramuscularly injected to mice. Henks solution was used as a solvent. […] Moscow (1992) 13 pp.]. […]

mongrel male rats = assay: Hypolipidemic activity: experimental hyperlipidemia (atherogenic load); conditions: atherogenic diet, oral last four days; for HDL-CS / LDL-CS+ VLDL-CS / Total CS / Triglycerides: blood; for Kcs: cholesterol index;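 on all read-outs here: serum drawn 18 h after the final dose from rats deprived of food over that interval, groups of 10 animals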
Procedure: Hypolipidemic activity of the compounds of general formula (I) was studied on the model of experimental hyperlipidemia [Arichi H., Kumura H.O. Effects of stibens compounds of roots of polygonum cuspidatium on the lipid metabolism. […] Each group of animals included 10 rats. […] Blood samples were taken for analysis 18 hours after the last administration of the test substances during which period food was taken away from rats.
The following parameters were determined: total cholesterol (total CS); high density lipoprotein cholesterol (HDL-CS); low density lipoprotein cholesterol and very low density lipoprotein cholesterol (LDL-CS and VLDL-CS); triglycerides (TG). Blood serum CS level was determined according to the Ilk method [Biochemical examination in the clinic. […] HDL-CS level was measured in supernatant following heparine-manganese precipitation of LDL+VLDL [Titov V.N., Brener E.D., Khaltaiev N.G., Zadoya A.A., Tvorogova M.G. A method and diagnostic significance of cholesterol level study in α-lipoproteins. […] LDL-CS level determination was carried out by calculation according to the formula presented in the work Friedwald W.T. [Friedwald W.T., Levy K.J., Leus R. Fat transport in lipoproteins: an integrated approach to mechanism and disorders.
To assess the effect of the test compounds on the ratio of atherogenic and antiatherogenic blood serum lipoproteins, cholesterol index (Kcs) was calculated according to the formula presented in the work [Klimov A.N., Nikulcheva N.G. Lipoproteins, dylipoproteinemias and atherosclerosis.
Blood serum TG level was determined using the conventional method [Friedwald W.T., Levy R.I., Fredrickson D.S. Estimation of concentration of low-density lipoprotein cholesterol in plasma, without use of preparative ultracentrifuge.

[6] = tested on: Strain Aichi of type A human influenza virus; type: in vivo; conditions: for Survival rate in percent: series with Control - 2 (34.5); for Protection degree in percent: series with Control - 2
[7] = 1 µM, control of the series as in the table
[8] = 0.01 mM, control of the series as in the table
[9] = 0.1 mM, control of the series as in the table
[10] = 1 mM, control of the series 7839 ± 171, 1120 ± 163, 4974 ± 283 or 1332 ± 172
[11] = intragastral four times 50 µg/kg
[12] = 1 mM, control of the series 5616 ± 173, 5391 ± 195, 7290 ± 128 or 6776 ± 150

## O=C(O)Cc1ccccc1Nc1c(Cl)cccc1Cl [Voltaren, reference compound]
White mongrel male rats [1]
  Volume of paws (conditional units) Right: 1.99 ± 0.24 conditional units
  Volume of paws (conditional units) left: 1.63 ± 0.26 conditional units
  Inflammation inhibition (%): 48%
  Volume increment: 0.40 ± 0.03

## O=C(O)CCC(=O)NCCc1c[nH]cn1 [compound II, N-SUCCINYLHISTAMINE]
Hydroxyl radical; 1 µM
  relative effect: I+/I-: 0.86
Hydroxyl radical; [7]
  Chemiluminiscence intensity (mV) + σn-1: 961 ± 42 mV
Hydroxyl radical; 0.01 mM
  relative effect: I+/I-: 0.69
Hydroxyl radical; [8]
  Chemiluminiscence intensity (mV) + σn-1: 772 ± 44 mV
Hydroxyl radical; 0.1 mM
  relative effect: I+/I-: 0.62
Hydroxyl radical; [9]
  Chemiluminiscence intensity (mV) + σn-1: 693 ± 42 mV
Hydroxyl radical; 1 mM
  relative effect: I+/I-: 0.16
Hydroxyl radical; [10]
  Chemiluminiscence intensity (mV) + σn-1: 175 ± 21 mV
[2]
  Growth inhibition percent: 61%
  Tumor volume (mm^3): 1025 ± 150** mm^3
[3]; 500 µg/kg
  Hexenal sleep duration (minutes): 21.72 ± 1.24* minutes
White mongrel male rats [4]; [11]
  Inflammation inhibition (%): 12%
  Volume increment: 0.64 ±0.05*^!
  Volume of paws (conditional units) left: 1.28 ± 0.28 conditional units
White mongrel male rats [4]; intragastral four times 50 µg/kg 72, 48, 24 and 1 hour before
  Volume of paws (conditional units) Right: 1.92 ± 0.65 conditional units
Superoxide anion-radical; 0.01 mM
  relative effect: 1+/I-: 0.97
Superoxide anion-radical; [8]
  Chemiluminiscence intensity (mV) + σn-1: 5229 ± 140 mV
Superoxide anion-radical; 0.1 mM
  relative effect: 1+/I-: 0.88
Superoxide anion-radical; [9]
  Chemiluminiscence intensity (mV) + σn-1: 4753 ± 89 mV
Superoxide anion-radical; 1 mM
  relative effect: 1+/I-: 0.58
Superoxide anion-radical; [12]
  Chemiluminiscence intensity (mV) + σn-1: 3143 ± 156 mV
[5]; 50 µg/kg
  Mean number of metastases: 44.3 ± 8.0
  Metastasizing inhibition percent: 5.5%
[5]; 500 µg/kg
  Mean number of metastases: 32.9 ± 4.8*^2
  Metastasizing inhibition percent: 30.0%

## Cl.O=C(O)CCCCC(=O)NCCc1c[nH]cn1 [IV, N-ADIPINYLHISTAMINE CHLOROHYDRATE]
[3]; 50 µg/kg
  Hexenal sleep duration (minutes): 20.39 ± 1.59* minutes

## N[C@@H](Cc1c[nH]cn1)C(=O)NCCC(=O)O [compound XXXVI, N-L-HISTIDYL-β-ALANINE]
White mongrel male rats [1]
  Volume of paws (conditional units) Right: 2.23 ± 0.42 conditional units
  Volume of paws (conditional units) left: 1.86 ± 0.16 conditional units
  Inflammation inhibition (%): 50%
  Volume increment: 0.37 ± 0.07

## NCCC(=O)NCCc1c[nH]c2ccccc12 [compound XIII]
White mongrel male rats [1]
  Volume of paws (conditional units) Right: 2.29 ± 0.18 conditional units
  Volume of paws (conditional units) left: 1.82 ± 0.34 conditional units
  Inflammation inhibition (%): 35%
  Volume increment: 0.47 ± 0.08
Mongrel male rats; 50 µg/kg
  HDL-CS: 23,9±1,9
  LDL-CS+ VLDL-CS: 52,4±3,9**^A
  Total CS: 76,3±5,5*^A
  Triglycerides: 201,2±8,7***^A
  Kcs: 2,19±0,16***^A
Mongrel male rats; 500 µg/kg
  HDL-CS: 27,8±2,3*^A
  LDL-CS+ VLDL-CS: 41,5±2,9***^A
  Total CS: 69,3±3,7***^A
  Triglycerides: 190,0±11,7***^A
  Kcs: 1,49±0,1***^A

## COC(=O)[C@H](Cc1c[nH]cn1)NC(=O)CCCC(=O)O [IX, N-GLUTARYL-L-HISTIDINE METHYL ETHER]
Hydroxyl radical; 0.01 mM
  relative effect: I+/I-: 0.95
Hydroxyl radical; [8]
  Chemiluminiscence intensity (mV) + σn-1: 1069 ± 72 mV
Hydroxyl radical; 0.1 mM
  relative effect: I+/I-: 0.59
Hydroxyl radical; [9]
  Chemiluminiscence intensity (mV) + σn-1: 664 ± 47 mV
Hydroxyl radical; 1 mM
  relative effect: I+/I-: 0.20
Hydroxyl radical; [10]
  Chemiluminiscence intensity (mV) + σn-1: 225 ± 9 mV
[2]
  Growth inhibition percent: 10%
  Tumor volume (mm^3): 2372 ± 323 mm^3
Mongrel male rats; 50 µg/kg
  HDL-CS: 29,7±3,6*^A
  LDL-CS+ VLDL-CS: 48,7±4,4**^A
  Total CS: 78,4±4,4*^A
  Triglycerides: 24,5±20,2
  Kcs: 1,64±0,16***^A
Mongrel male rats; 500 µg/kg
  HDL-CS: 20,1±1,6
  LDL-CS+ VLDL-CS: 52,0±3,4**^A
  Total CS: 72,1±3,9**^A
  Triglycerides: 201.8±8,1***^A
  Kcs: 2,59±0,17***^A
[3]; 50 µg/kg
  Hexenal sleep duration (minutes): 16.71 ± 0.94** minutes
[3]; 500 µg/kg
  Hexenal sleep duration: 20.76 ± 1.32 min
[5]; 500 µg/kg
  Mean number of metastases: 38.5 ± 5.7*^3
  Metastasizing inhibition percent: 24.0%

## COC(=O)[C@@H](N)CCC(=O)N[C@@H](Cc1c[nH]cn1)C(=O)O.Cl.Cl [compound XI, γ-L-GLUTAMYL HISTIDINE α-METHYL ETHER DICHLOROHYDRATE]
Hydroxyl radical; [7]
  Chemiluminiscence intensity (mV) + σn-1: 1116 ± 90 mV
Hydroxyl radical; [8]
  Chemiluminiscence intensity (mV) + σn-1: 1124 ± 113 mV
Hydroxyl radical; 1 mM
  relative effect: I+/I-: 0.50
Hydroxyl radical; [10]
  Chemiluminiscence intensity (mV) + σn-1: 557 ± 52 mV
[3]; 500 µg/kg
  Hexenal sleep duration (minutes): 17.71 ± 0.66*** minutes
Superoxide anion-radical; 0.1 mM
  relative effect: 1+/I-: 0.82
Superoxide anion-radical; [9]
  Chemiluminiscence intensity (mV) + σn-1: 4621 ± 224 mV
Superoxide anion-radical; 1 mM
  relative effect: 1+/I-: 0.40
Superoxide anion-radical; [12]
  Chemiluminiscence intensity (mV) + σn-1: 2263 ± 278 mV

## CCCCCCCNC(=O)Cc1c[nH]cn1 [XXXIII, N-(IMIDAZOLYL-4-ACETHYL)-HEPTHYLAMINE]
[3]; 500 µg/kg
  Hexenal sleep duration (minutes): 19.82 ± 2.12* minutes
[6]; 50 µg/kg orally
  Survival rate in percent: 63.3%
  Protection degree in percent: 28.8%
[6]; 500 µg/kg orally
  Survival rate in percent: 76.6*^2%
  Protection degree in percent: 76.6%
